Assay results as given in patent US6468972B1, “Method to promote, stimulate and/or delay hair loss by a brady kinin antagonist” (Societe L'Oreal S.A., priority 1995, dated 2002).

Experiments:
[1] = Effect on the increase in intracellular calcium concentration induced by bradykinin (FURA 2 spectrofluorimetry); assay type: cell-based, human; details: Homo sapiens, Keratinocyte, preincubation at least 120 seconds before 1 μM bradykinin, ORS keratinocytes
Description: (§1) a) Culturing Keratinocytes of the Outer Sheath of Human Hair Follicles: This procedure is a variant of that described by YANG et al., J. Invest. Dermatol., 1993, 101 (5), 652-659. After decontamination, a lifting scalp biopsy is treated with dispase in a proportion of 2.4 units/ml for 20 hours at 4° C. The outer sheath of the hair follicles (ORS) is then isolated by dissection, followed by treatment with 0.125% trypsin for 30 minutes at 37° C. The cells thus prepared are then cultured in conditioned Green medium for 6 days. […] The cells are then placed on glass slides 10 mm in diameter and cultured in KGM medium. b) Measurement of the Intracellular Calcium Concentration: The measurements are taken according to the procedures used conventionally by those skilled in the art and which are found, for example, in Cellular Calcium: A Practical Approach, published by J. G. McCormack and P. H. Cobbold; IRL PRESS (1991). The cells are incubated for 1 hour at 37° C. in 10 mM HEPES buffer, 5 mM KCl, 140 mM NaCl, 10 mM glucose, 1 mM MgCl2, 2 mM CaCl2 with 5 μM FURA 2 acetomethyl ester and Pluronic (5 mg/10 ml). After rinsing in the buffer, the slides are placed in an adapted support and the reading is taken using a PERKIN ELMER LS 50 B spectrofluorimeter at 37° C. The cells are preincubated with or without Minoxidil or Minoxidil sulphate, for at least 120 seconds before the injection of 1 μM bradykinin.

[2] = system: bradykinin-induced increase in intracellular calcium concentration in keratinocytes of the outer sheath of human hair follicles; test: as above; assay type: cell-based; details: for Effect on the increase in intracellular calcium concentration induced by bradykinin (in words): summary statement of Example 1; for % Inhibition (1 μM bradykinin): preincubation at least 120 seconds before 1 μM bradykinin, ORS keratinocytes
Description: as §1

Compound	inhibition at 10 µM ([1]; product concentration 10 μM)	inhibition at 50 µM ([1]; product concentration 50 μM)	inhibition at 100 µM ([1]; product concentration 100 μM)	inhibition at 1000 µM ([1]; product concentration 1000 μM)	Effect on the increase in intracellular calcium concentration induced by bradykinin (in words) [2]	% Inhibition (1 μM bradykinin) ([2]; product concentration 10 μM)	% Inhibition (1 μM bradykinin) ([2]; product concentration 50 μM)	% Inhibition (1 μM bradykinin) ([2]; product concentration 100 μM)	% Inhibition (1 μM bradykinin) ([2]; product concentration 1000 μM)
Nc1cc(N2CCCCC2)nc(N)[n+]1[O-] [Minoxidil, 2,4-diamino-6-piperidinopyrimidine 3-oxide]	0%	15%	25%	31%	inhibit the increase in intracellular calcium concentration induced by bradykinin				
Minoxidil sulphate					inhibit the increase in intracellular calcium concentration induced by bradykinin	0%	31%	54%	70%
